# Measurements: patent US20250179078A1, “INHIBITORS OF NLRP3” (PTC THERAPEUTICS, INC., priority 2022, published 2025)
# Biological target: T1, NLRP3 (Homo sapiens, UniProt Q96P20)
# T1 construct: host or cells: THP-1 cells differentiated with PMA
# Experiment: IL-1β Secretion Assay (NLRP3-dependent IL1β secretion in THP1 cells)
# Format: cell-based
# Conditions: PMA-differentiated THP-1 cells; compounds incubated 20 h; 2.5 μM Nigericin 3 h; HTRF IL-1β readout; read-out: IC50 IL-1β Inhibition
# Summary of the method: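 THP-1 cells differentiated with 100 ng/mL PMA for 24 h, then given compound (7-point 3-fold series, 1:200 from DMSO) for 20 h in RPMI+5% FBS. NLRP3 activated with 2.5 μM nigericin for 3 h; secreted IL-1β measured by HTRF; IC50 from logistic fit of % inhibition.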
# T1 sequence (Q96P20 whole entry): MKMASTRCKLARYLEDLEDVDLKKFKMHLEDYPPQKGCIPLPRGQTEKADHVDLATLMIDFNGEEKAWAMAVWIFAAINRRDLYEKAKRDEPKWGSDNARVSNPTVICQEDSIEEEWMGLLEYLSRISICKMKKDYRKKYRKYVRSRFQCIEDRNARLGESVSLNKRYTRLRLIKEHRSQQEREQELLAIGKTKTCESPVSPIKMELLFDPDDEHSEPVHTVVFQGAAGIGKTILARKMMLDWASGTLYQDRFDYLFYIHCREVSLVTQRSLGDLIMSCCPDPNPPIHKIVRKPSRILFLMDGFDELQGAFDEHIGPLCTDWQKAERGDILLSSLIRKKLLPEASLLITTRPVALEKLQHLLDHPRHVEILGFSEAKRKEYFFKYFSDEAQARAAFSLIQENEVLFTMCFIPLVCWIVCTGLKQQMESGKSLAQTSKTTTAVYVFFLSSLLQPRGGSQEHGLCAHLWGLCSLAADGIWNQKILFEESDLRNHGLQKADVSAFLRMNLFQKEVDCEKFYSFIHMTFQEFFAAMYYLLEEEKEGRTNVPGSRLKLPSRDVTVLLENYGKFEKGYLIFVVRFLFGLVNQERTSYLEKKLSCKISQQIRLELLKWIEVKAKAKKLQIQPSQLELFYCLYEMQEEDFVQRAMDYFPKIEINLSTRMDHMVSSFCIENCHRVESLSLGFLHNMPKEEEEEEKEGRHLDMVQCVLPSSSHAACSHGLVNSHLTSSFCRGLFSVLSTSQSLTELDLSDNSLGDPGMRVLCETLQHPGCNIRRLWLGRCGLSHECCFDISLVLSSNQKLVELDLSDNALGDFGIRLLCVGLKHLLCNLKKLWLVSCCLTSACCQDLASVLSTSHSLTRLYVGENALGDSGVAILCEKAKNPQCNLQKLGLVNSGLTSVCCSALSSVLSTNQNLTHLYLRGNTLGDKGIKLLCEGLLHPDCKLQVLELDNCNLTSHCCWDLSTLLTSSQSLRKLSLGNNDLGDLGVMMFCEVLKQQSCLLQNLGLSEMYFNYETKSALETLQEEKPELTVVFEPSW
row,SMILES,IC50
1,"Cc1ccc(-c2nnc(N[C@@H]3CCCC[C@@H]3O)n3cccc23)c(OC(F)F)c1 [Compound 137, (1S,2R)-2-({1-[2-(difluoromethoxy)-4-methylphenyl]pyrrolo[1,2-d][1,2,4]triazin-4-yl}amino)cyclohexan-1-ol]",1 to 10 nM
2,"COc1ccc(-c2nnc(N[C@@H]3CCCC[C@H]3O)n3cccc23)c(CC(F)(F)F)c1 [Compound 138, (1R,2R)-2-({1-[4-methoxy-2-(2,2,2-trifluoroethyl)phenyl]pyrrolo[1,2-d][1,2,4]triazin-4-yl}amino)cyclohexan-1-ol]",1 to 10 nM
3,"COc1ccc(-c2nnc(NC3CCNC3=O)n3cccc23)c(CC(F)(F)F)c1 (centres unmarked) [Compound 139, 3-({1-[4-methoxy-2-(2,2,2-trifluoroethyl)phenyl]pyrrolo[1,2-d][1,2,4]triazin-4-yl}amino)pyrrolidin-2-one]",1 to 10 nM
4,"CN1CCC[C@@H](Nc2nnc(-c3ccc(C(F)(F)F)cc3OC(F)(F)F)c3cccn23)C1 [Compound 140, N-[(3R)-1-methylpiperidin-3-yl]-1-[2-(trifluoromethoxy)-4-(trifluoromethyl)phenyl]pyrrolo[1,2-d][1,2,4]triazin-4-amine]",< 1 nM
5,"OC[C@H]1C[C@@H](Nc2nnc(-c3ccc(C(F)(F)F)cc3OC(F)(F)F)c3cccn23)C1 [Compound 141, [(1s,3s)-3-({1-[2-(trifluoromethoxy)-4-(trifluoromethyl)phenyl]pyrrolo[1,2-d][1,2,4]triazin-4-yl}amino)cyclobutyl]methanol]",1 to 10 nM
6,"CC(Nc1nnc(-c2ccc(C(F)(F)F)cc2OC(F)(F)F)c2cccn12)c1cccc(O)c1 (centres unmarked) [Compound 142, 3-[1-({1-[2-(trifluoromethoxy)-4-(trifluoromethyl)phenyl]pyrrolo[1,2-d][1,2,4]triazin-4-yl}amino)ethyl]phenol]",1 to 10 nM
7,"COc1ccc(-c2nnc(N[C@@H]3CCCN(CCO)C3)n3cccc23)c(OC2CC2)c1 [Compound 143, 2-[(3R)-3-({1-[2-(cyclopropyloxy)-4-methoxyphenyl]pyrrolo[1,2-d][1,2,4]triazin-4-yl}amino)piperidin-1-yl]ethan-1-ol]",10 to 100 nM
8,"COc1ccc(-c2nnc(N[C@@H]3CCOC[C@H]3O)n3cccc23)c(CC(F)(F)F)c1 [Compound 144, (3S,4R)-4-({1-[4-methoxy-2-(2,2,2-trifluoroethyl)phenyl]pyrrolo[1,2-d][1,2,4]triazin-4-yl}amino)oxan-3-ol]",1 to 10 nM
9,"COc1ccc(-c2nnc(N[C@@H]3CCCN(C)C3)n3cccc23)c(CC(F)(F)F)c1 [Compound 145, 1-[4-methoxy-2-(2,2,2-trifluoroethyl)phenyl]-N-[(3R)-1-methylpiperidin-3-yl]pyrrolo[1,2-d][1,2,4]triazin-4-amine]",< 1 nM
10,"CN1CCC[C@@H](CNc2nnc(-c3ccc(C(F)(F)F)cc3CC(F)(F)F)c3cccn23)C1 [Compound 146, N-{[(3S)-1-methylpiperidin-3-yl]methyl}-1-[2-(2,2,2-trifluoroethyl)-4-(trifluoromethyl)phenyl]pyrrolo[1,2-d][1,2,4]triazin-4-amine]",1 to 10 nM
11,"CN1CCC[C@H](CNc2nnc(-c3ccc(C(F)(F)F)cc3CC(F)(F)F)c3cccn23)C1 [Compound 147, N-{[(3R)-1-methylpiperidin-3-yl]methyl}-1-[2-(2,2,2-trifluoroethyl)-4-(trifluoromethyl)phenyl]pyrrolo[1,2-d][1,2,4]triazin-4-amine]",1 to 10 nM
12,"COc1cccc(C(C)Nc2nnc(-c3ccc(OC)cc3C(F)(F)F)c3c(F)ccn23)c1 (centres unmarked) [Compound 148, 8-fluoro-N-[1-(3-methoxyphenyl)ethyl]-1-[4-methoxy-2-(trifluoromethyl)phenyl]pyrrolo[1,2-d][1,2,4]triazin-4-amine]",100 to 300 nM
13,"COc1ccc(-c2nnc(NC(C)c3cccc(O)c3)n3ccc(F)c23)c(C(F)(F)F)c1 (centres unmarked) [Compound 149, 3-[1-({8-fluoro-1-[4-methoxy-2-(trifluoromethyl)phenyl]pyrrolo[1,2-d][1,2,4]triazin-4-yl}amino)ethyl]phenol]",1 to 10 nM
14,"FC(F)(F)Oc1cc(C(F)(F)F)ccc1-c1nnc(Nc2cc[nH]n2)n2cccc12 [Compound 150, N-(1H-pyrazol-3-yl)-1-[2-(trifluoromethoxy)-4-(trifluoromethyl)phenyl]pyrrolo[1,2-d][1,2,4]triazin-4-amine]",100 to 300 nM
15,"O[C@@H]1CCCC[C@H]1Nc1nnc(-c2ccc(C(F)(F)F)cc2OC(F)(F)F)c2cccn12 [Compound 151, (1R,2R)-2-({1-[2-(trifluoromethoxy)-4-(trifluoromethyl)phenyl]pyrrolo[1,2-d][1,2,4]triazin-4-yl}amino)cyclohexan-1-ol]",1 to 10 nM
16,"FC(F)Oc1ccc(-c2nnc(N[C@@H]3CCCOC3)n3cccc23)c(OC(F)(F)F)c1 [Compound 152, 1-[4-(difluoromethoxy)-2-(trifluoromethoxy)phenyl]-N-[(3R)-oxan-3-yl]pyrrolo[1,2-d][1,2,4]triazin-4-amine]",1 to 10 nM

row,SMILES,IC50
1,"O[C@H]1CCC[C@@H](Nc2nnc(-c3ccc(OC(F)F)cc3OC(F)(F)F)c3cccn23)C1 [Compound 153, (1S,3R)-3-({1-[4-(difluoromethoxy)-2-(trifluoromethoxy)phenyl]pyrrolo[1,2-d][1,2,4]triazin-4-yl}amino)cyclohexan-1-ol]",1 to 10 nM
2,"O=C1NCCC1Nc1nnc(-c2ccc(OC(F)F)cc2OC(F)(F)F)c2cccn12 (centres unmarked) [Compound 154, 3-({1-[4-(difluoromethoxy)-2-(trifluoromethoxy)phenyl]pyrrolo[1,2-d][1,2,4]triazin-4-yl}amino)pyrrolidin-2-one]",1 to 10 nM
3,"FC(F)Oc1ccc(-c2nnc(Nc3cc[nH]n3)n3cccc23)c(OC(F)(F)F)c1 [Compound 155, 1-[4-(difluoromethoxy)-2-(trifluoromethoxy)phenyl]-N-(1H-pyrazol-3-yl)pyrrolo[1,2-d][1,2,4]triazin-4-amine]",10 to 100 nM
4,"Cc1ccc(-c2nnc(N[C@@H]3CCCC[C@H]3O)n3cccc23)c(CC(F)(F)F)c1 [Compound 156, (1R,2R)-2-({1-[4-methyl-2-(2,2,2-trifluoroethyl)phenyl]pyrrolo[1,2-d][1,2,4]triazin-4-yl}amino)cyclohexan-1-ol]",1 to 10 nM
5,"Cc1ccc(-c2nnc(NC3CCNC3=O)n3cccc23)c(CC(F)(F)F)c1 (centres unmarked) [Compound 157, 3-({1-[4-methyl-2-(2,2,2-trifluoroethyl)phenyl]pyrrolo[1,2-d][1,2,4]triazin-4-yl}amino)pyrrolidin-2-one]",1 to 10 nM
6,"Cc1ccc(-c2nnc(N[C@H]3C[C@@](C)(O)C3)n3cccc23)c(CC(F)(F)F)c1 [Compound 158, (1s,3s)-1-methyl-3-({1-[4-methyl-2-(2,2,2-trifluoroethyl)phenyl]pyrrolo[1,2-d][1,2,4]triazin-4-yl}amino)cyclobutan-1-ol]",1 to 10 nM
7,"Cc1ccc(-c2nnc(N[C@@H]3CCCN(C)C3)n3cccc23)c(CC(F)(F)F)c1 [Compound 159, N-[(3R)-1-methylpiperidin-3-yl]-1-[4-methyl-2-(2,2,2-trifluoroethyl)phenyl]pyrrolo[1,2-d][1,2,4]triazin-4-amine]",< 1 nM
8,"Cc1cc2c(-c3ccc(C(F)(F)F)cc3C(F)(F)F)nnc(N[C@@H]3CCCC[C@H]3O)n2c1 [Compound 160, (1R,2R)-2-({1-[2,4-bis(trifluoromethyl)phenyl]-7-methylpyrrolo[1,2-d][1,2,4]triazin-4-yl}amino)cyclohexan-1-ol]",1 to 10 nM
9,"Cc1cc2c(-c3ccc(C(F)(F)F)cc3C(F)(F)F)nnc(NC3CCNC3=O)n2c1 (centres unmarked) [Compound 161, 3-({1-[2,4-bis(trifluoromethyl)phenyl]-7-methylpyrrolo[1,2-d][1,2,4]triazin-4-yl}amino)pyrrolidin-2-one]",1 to 10 nM
10,"COc1ccc(-c2nnc(NC3CCNC3=O)n3cc(C)cc23)c(OC(F)(F)F)c1 (centres unmarked) [Compound 162, 3-({1-[4-methoxy-2-(trifluoromethoxy)phenyl]-7-methylpyrrolo[1,2-d][1,2,4]triazin-4-yl}amino)pyrrolidin-2-one]",1 to 10 nM
11,"COc1ccc(-c2nnc(N[C@@H]3CCCC[C@H]3O)n3cc(C)cc23)c(OC(F)(F)F)c1 [Compound 163, (1R,2R)-2-({1-[4-methoxy-2-(trifluoromethoxy)phenyl]-7-methylpyrrolo[1,2-d][1,2,4]triazin-4-yl}amino)cyclohexan-1-ol]",10 to 100 nM
12,"Cc1cc2c(-c3ccc(C(F)(F)F)cc3C(F)(F)F)nnc(N[C@@H]3CCOC[C@H]3O)n2c1 [Compound 164, (3S,4R)-4-({1-[2,4-bis(trifluoromethyl)phenyl]-7-methylpyrrolo[1,2-d][1,2,4]triazin-4-yl}amino)oxan-3-ol]",100 to 300 nM
13,"COc1ccc(-c2nnc(N[C@@H]3CCOC[C@H]3O)n3cc(C)cc23)c(OC(F)(F)F)c1 [Compound 165, (3S,4R)-4-({1-[4-methoxy-2-(trifluoromethoxy)phenyl]-7-methylpyrrolo[1,2-d][1,2,4]triazin-4-yl}amino)oxan-3-ol]",1 to 10 nM
14,"CCN1CCC[C@@H](Nc2nnc(-c3ccc(OC)cc3OC(F)F)c3cccn23)C1 [Compound 166, 1-[2-(difluoromethoxy)-4-methoxyphenyl]-N-[(3R)-1-ethylpiperidin-3-yl]pyrrolo[1,2-d][1,2,4]triazin-4-amine]",< 1 nM
15,"COc1ccc(-c2nnc(N[C@@H]3CCOC[C@H]3O)n3cccc23)c(OC(F)F)c1 [Compound 167, (3S,4R)-4-({1-[2-(difluoromethoxy)-4-methoxyphenyl]pyrrolo[1,2-d][1,2,4]triazin-4-yl}amino)oxan-3-ol]",10 to 100 nM
16,"O[C@@H]1CCCC[C@H]1Nc1nnc(-c2ccc(OC(F)F)cc2OC(F)(F)F)c2cccn12 [Compound 168, (1R,2R)-2-({1-[4-(difluoromethoxy)-2-(trifluoromethoxy)phenyl]pyrrolo[1,2-d][1,2,4]triazin-4-yl}amino)cyclohexan-1-ol]",1 to 10 nM
